Assay results taken from patent publication US12570670B2, “Compounds, compositions, and methods for treating fibrosis” (YALE UNIVERSITY, priority 2019, dated 2026).
Like-named read-outs stand apart in the source and are kept apart here.

Assays:
p38α MAPK [1] = experiment: p38α MAPK phosphorylation in wild type MEFs; format: cell-based, mouse
Procedure: (§1) C2C12 myoblasts were cultured as described previously. Substantively, wild type (mkp-5^+/+) and MKP5-deficient (mkp-5^−/−) mouse embryo fibroblasts (MEFs) were generated from female mice at days 13-14 of pregnancy and established by spontaneous immortalization. C2C12 myoblasts and MEFs were treated with 1 at the indicated concentrations for 24 h. For immunoblotting, C2C12 myoblasts or MKP5 wild type and MKP5-deficient fibroblasts were lysed on ice in lysis buffer and clarified by centrifugation at 20,800×g at 4° C. for 20 min. Protein concentration was determined using BCA reagent according to the manufacturer's instructions (Pierce). Recombinant human TGF-β1 (240-B-002) was purchased from R&D Systems. For phospho-MAPK and MAPK immunoblotting, lysates were resolved by SDS-PAGE and transferred onto nitrocellulose membranes (Bio-Rad). Membranes were blocked with 5% nonfat dry milk or 5% BSA in Tris-buffered saline/Tween 20 (TBS-T) for 1 h at room temperature or overnight at 4° C. Primary antibodies were diluted in 5% BSA or 5% nonfat dry milk in TBS-T. MAPK and Smad2 activation were calculated as the ratio of the indicated phosphorylated MAPK or phosphorylated Smad2 to total MAPK or Smad2, respectively by direct fluorescence quantitation using the Odyssey CLx Imaging System. Images were processed with the LI-COR Image Studio Software.

ERK1/2 [2] = experiment: ERK1/2 phosphorylation in wild type MEFs; format: cell-based, mouse
Procedure: as §1

JNK [3] = experiment: JNK activation in C2C12 myoblasts (pMAPK/MAPK immunoblot); format: cell-based, mouse
Procedure: as §1

STEP-46 = target: T1, STEP-46 (Homo sapiens, UniProt P54829); experiment: STEP-46 pNPP counterscreen; format: biochemical; settings: pNPP assay, FIG. 15; read-out: IC50 against STEP-46
T1 sequence (P54829 1-565): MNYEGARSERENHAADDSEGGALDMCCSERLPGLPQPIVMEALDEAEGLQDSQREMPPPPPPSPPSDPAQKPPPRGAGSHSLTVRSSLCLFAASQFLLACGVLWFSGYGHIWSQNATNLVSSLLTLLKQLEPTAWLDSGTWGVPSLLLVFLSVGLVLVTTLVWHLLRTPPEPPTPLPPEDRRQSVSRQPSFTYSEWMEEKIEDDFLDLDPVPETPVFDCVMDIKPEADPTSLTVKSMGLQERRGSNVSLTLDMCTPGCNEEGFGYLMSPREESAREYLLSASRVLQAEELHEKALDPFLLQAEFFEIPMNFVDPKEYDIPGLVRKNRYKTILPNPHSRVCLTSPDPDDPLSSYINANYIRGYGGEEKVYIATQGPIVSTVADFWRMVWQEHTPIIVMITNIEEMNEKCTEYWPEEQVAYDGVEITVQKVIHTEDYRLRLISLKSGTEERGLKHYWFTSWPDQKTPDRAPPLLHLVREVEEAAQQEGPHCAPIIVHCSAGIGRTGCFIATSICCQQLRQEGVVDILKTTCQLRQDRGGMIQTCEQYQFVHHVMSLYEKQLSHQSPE
Procedure: (§2) To test for 1 activity on STEP-46, a pNPP assay was employed with 1.5 μM STEP46 and 10 mM pNPP. After 30 min at room temperature, absorbance at 405 nm was measured. For comparison, MKP5-CD was tested in the pNPP assay under identical conditions. For PTP1B, the Millipore PTP1B assay kit (#539736) was performed as recommended by the manufacturer except that malachite green was used for detection.

[4] = system: MKP5-CD Y435A, Y435S, Y435W mutants; experiment: Binding and inhibition of Tyr435 mutant MKP5-CD constructs; format: biochemical; settings: FIG. 3C
Procedure: The catalytic domain of MKP5 (MKP5-CD, residues 320-467) was inserted into a pET-28a vector for expression. Mutant constructs were generated according to the QuikChange II (Agilent) site directed mutagenesis protocol. Constructs were transformed into BL21 (DE3) cells and grown in LB containing 100 μg/mL kanamycin to an OD of 0.8. Protein expression was induced with 1 mM IPTG, and cells were harvested after overnight incubation at 22° C.
Binding interactions between MKP5-CD and 1 were carried out using microscale thermophoresis (MST) on a Monolith NT.115Pico instrument. MKP5-CD was labeled for MST using NanoTemper Monolith NTTM Protein Labeling Kit RED-NHS 2nd Generation (#MO-L011). Briefly, MKP5-CD was transferred into the provided labeling buffer and diluted to 20 μM. Dye was added in a 2-fold molar excess and allowed to incubate 30 minutes at room temperature. Excess dye was removed using the provided column equilibrated in 50 mM Tris pH 8.0, 150 mM NaCl, 0.05% Tween-20. A fixed amount of labeled wild-type or mutant MKP5-CD was combined with up to 200 μM 1 and loaded into premium capillaries. MST experiments were carried out at 40% IR power for 20 seconds. Normalized fluorescence (Fnorm) values at a given time were plotted against inhibitor concentration, and the Kd was determined by fitting with a hyperbolic binding curve. […]

[5] = target: T2, catalytic domain of MKP1 (MKP1-CD) (Homo sapiens, UniProt P28562); experiment: Malachite green assay of MKP1-CD; format: biochemical
T2 construct: MKP1-CD (human aa 172-314); purchased ARVYS Proteins (Trumbull, CT)
T2 sequence (P28562 172-314): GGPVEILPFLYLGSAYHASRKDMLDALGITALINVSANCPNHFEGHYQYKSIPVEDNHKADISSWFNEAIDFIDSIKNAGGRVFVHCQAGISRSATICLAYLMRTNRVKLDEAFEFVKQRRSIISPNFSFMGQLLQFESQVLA
Procedure: Compound 1 selected from the screen was tested for activity against MKP1 and MKP5 using the malachite green assay. For MKP5-CD, the same conditions for the screening assay were used. For MKP1-CD, the following conditions were used: 1 μM MKP1-CD, 50 μM pTpY, 120 min at 30° C.

JNK [6] = experiment: JNK phosphorylation in wild type MEFs; format: cell-based, mouse
Procedure: as §1

ERK1/2 [7] = experiment: ERK1/2 activation in C2C12 myoblasts (pMAPK/MAPK immunoblot); format: cell-based, mouse; settings: even at the highest concentration
Procedure: as §1

MKP5-CD [8] = target: T3, MKP5-CD (Homo sapiens, UniProt Q9Y6W6); experiment: Phosphate sensor kinetic assay with full-length p38α MAPK as substrate; format: biochemical; settings: 25 μM inhibitor, varying p38α MAPK
T3 construct: The catalytic domain of MKP5 (MKP5-CD, residues 320-467) was inserted into a pET-28a vector; His-tag (N, cleaved yes); made in house; host or cells: E. coli BL21 (DE3)
T3 sequence (Q9Y6W6 320-467): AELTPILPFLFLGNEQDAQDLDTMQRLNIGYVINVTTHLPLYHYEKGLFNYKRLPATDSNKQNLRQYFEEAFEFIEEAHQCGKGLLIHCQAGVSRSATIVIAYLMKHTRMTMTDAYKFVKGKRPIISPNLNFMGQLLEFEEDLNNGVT
Procedure: The phosphate sensor protein (PS) was purchased from Life Technologies (Lot #1962036B). To characterize the activity of MKP5-CD against full length p38α MAPK, 5 nM MKP5-CD and 0.5 μM PS were combined in 50 mM Tris (pH 7.6), 25 mM NaCl, 0.01% Triton X100 and […] and added to a Corning #4511 384-well plate. Using an Echo 550 liquid handler (LabCyte Inc.), either 25 μM compound 1 or neat DMSO were added to a final DMSO concentration of 0.2%. Reactions were initiated with up to 300 μM p38α MAPK, a concentration approximately 5 times the KM of MKP5-CD39, and allowed to proceed at ambient temperature for 20 minutes. Fluorescence was continuously monitored by Tecan Infinite M1000 with excitation at 425 f 5 nm and emission at 454 f 5 nm. Raw fluorescence was converted to phosphate release using a standard curve generated the same day as kinetic experiments. The initial velocity was determined for each well based on reaction progress in the first 120 seconds. These velocities were then plotted against substrate concentration and fit to a mixed-mechanism inhibition curve.

p38α MAPK [9] = experiment: p38α MAPK activation in C2C12 myoblasts (pMAPK/MAPK immunoblot); format: cell-based, mouse
Procedure: as §1

PTP-1B = target: T4, PTP-1B (Homo sapiens, UniProt P18031); experiment: PTP1B counterscreen (Millipore kit, malachite green detection); format: biochemical; settings: FIG. 15; read-out: IC50 against PTP-1B
T4 construct: purchased Millipore 539736
T4 sequence (P18031 1-435): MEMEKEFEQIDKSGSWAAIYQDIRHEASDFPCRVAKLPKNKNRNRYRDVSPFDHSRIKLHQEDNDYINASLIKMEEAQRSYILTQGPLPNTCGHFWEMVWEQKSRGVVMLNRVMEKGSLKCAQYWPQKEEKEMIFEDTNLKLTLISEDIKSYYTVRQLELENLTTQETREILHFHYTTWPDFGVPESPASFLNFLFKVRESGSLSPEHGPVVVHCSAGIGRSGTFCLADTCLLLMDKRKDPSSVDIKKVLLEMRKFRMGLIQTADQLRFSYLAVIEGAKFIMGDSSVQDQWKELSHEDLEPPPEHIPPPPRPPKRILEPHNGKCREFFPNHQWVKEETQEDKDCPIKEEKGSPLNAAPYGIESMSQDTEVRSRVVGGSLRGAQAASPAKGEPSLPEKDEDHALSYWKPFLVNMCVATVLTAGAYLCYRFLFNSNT
Procedure: as §2

[10] = target: T5, MKP5-CD (catalytic domain of MKP5, residues 320-467) (Homo sapiens, UniProt Q9Y6W6); experiment: Malachite green phosphatase assay of MKP5-CD with p38α MAPK phosphopeptide substrate; format: biochemical
T5 construct: The catalytic domain of MKP5 (MKP5-CD, residues 320-467) was inserted into a pET-28a vector; His-tag (N, cleaved yes); made in house; host or cells: E. coli BL21 (DE3)
T5 sequence (Q9Y6W6 320-467): T3 sequence (Q9Y6W6 320-467)
Procedure: A small molecule collection was screened for activity against MKP5-CD using a malachite green assay in 384-well format. MKP5-CD and p38α MAPK phosphopeptide (DDE(Nle)(pT)G(pY)VATR) substrate were diluted into PTP buffer (50 mM Tris pH 7.2, 1 mM EDTA, 0.1% β-mercaptoethanol, 0.01% Triton X-100). The screen was performed in two distinct phases. An initial screen against a subset of the compound library was carried out in the following conditions: 1.5 μM MKP5-CD, 25 μM phosphopeptide, 30 min at 37° C. A second follow-up screen was performed with the following modifications: 0.5 μM MKP5-CD, 50 μM phosphopeptide, 15 min at 30° C. Test compounds (20 nL) were dispensed with either an Aquarius (Tecan) pintool system (initial phase) or Echo 550 (Labcyte) acoustic dispenser (follow-up phase). In both phases, the test compound concentration was 20 μM in the 10 μL reaction and the final DMSO was 0.2%. […] The plate was incubated for 10-15 min at room temperature to allow color development and absorbance at 620 nm measured. The signal-to-background (S/B) ratio was calculated from the mean absorbance of vehicle-treated wells with and without enzyme (negative and positive controls; n=32 per condition). Percent inhibition of test wells was calculated from the mean positive and negative controls on each plate. […]

Smad2 = experiment: TGF-β1-mediated Smad2 phosphorylation in wild type MEFs; format: cell-based, mouse; settings: TGF-β1 1 ng/ml 10 minutes
Procedure: as §1

MKP5-CD [11] = target: T3, MKP5-CD; experiment: Microscale thermophoresis binding assay; settings: fluorescently-labeled MKP5-CD, FIG. 1D; read-out: dissociation constant (Kd)
Procedure: Binding interactions between MKP5-CD and 1 were carried out using microscale thermophoresis (MST) on a Monolith NT.115Pico instrument. MKP5-CD was labeled for MST using NanoTemper Monolith NTTM Protein Labeling Kit RED-NHS 2nd Generation (#MO-L011). Briefly, MKP5-CD was transferred into the provided labeling buffer and diluted to 20 μM. Dye was added in a 2-fold molar excess and allowed to incubate 30 minutes at room temperature. Excess dye was removed using the provided column equilibrated in 50 mM Tris pH 8.0, 150 mM NaCl, 0.05% Tween-20. A fixed amount of labeled wild-type or mutant MKP5-CD was combined with up to 200 μM 1 and loaded into premium capillaries. MST experiments were carried out at 40% IR power for 20 seconds. Normalized fluorescence (Fnorm) values at a given time were plotted against inhibitor concentration, and the Kd was determined by fitting with a hyperbolic binding curve. Experiments were performed in triplicate and data are presented as means±SD.

Structure (SMILES): CSc1scc2c1-c1nc(SCC(=O)C(C)(C)C)ncc1CC2 [Compound 1, 3,3-Dimethyl-1-((9-(methylthio)-5,6-dihydrothieno[3,4-h]quinazolin-2-yl)thio)butan-2-one]
- phosphorylation of p38α MAPK (p38α MAPK [1]): dose-dependent increase
- phosphorylation of ERK1/2 (ERK1/2 [2]): not ERK1/2
- JNK activation (JNK [3]; 24 h): increased upon treatment of C2C12 myoblasts but with less effectiveness as compared with p38 MAPK
- induction of JNK activity (JNK [3]; highest concentration): 1.4 fold
- IC50 (STEP-46): > 200 µM
- binding to and inhibition of Tyr435 mutants [4]: only capable of binding to and inhibiting the activity of the Y435W mutant
- IC50 ([5]; FIG. 1F, read-out: IC50 towards the catalytic domain of MKP1): > 60 µM
- reduction in potency for MKP1 relative to MKP5 ([5]; MKP1 versus MKP5): 16 fold
- phosphorylation of JNK (JNK [6]): dose-dependent increase
- activation status of ERK1/2 (ERK1/2 [7]): did not alter
- mode of inhibition (MKP5-CD [8]): mixed competitive mode of inhibition
- α of mixed-mechanism inhibition fit (MKP5-CD [8]): ≈ 4.6
- activation of p38α MAPK (p38α MAPK [9]; 24 h): increased in a dose-dependent manner
- induction of p38α MAPK activity (p38α MAPK [9]; highest concentration): 2.0 fold
- IC50 (PTP-1B): > 100 µM
- IC50 [10]: ~4.2 µM
- IC50 ([10]; resynthesized compound, p38α MAPK phosphopeptide substrate, FIG. 1E, read-out: IC50 against MKP5-CD): 3.9 ± 0.6 µM
- TGF-β1-mediated Smad2 phosphorylation (Smad2): inhibited
- Kd (MKP5-CD [11]): 1 ± 0.2 µM
